This is an account of results in ChEMBL document CHEMBL1148238, “Design, synthesis and cytotoxicity of 7-deoxy aryl discodermolide analogues” (Bioorg Med Chem Lett, 2004).

A value given as a limit tells only on which side of the number the result lay.

Holding throughout (assay type): functional, cell-based
Conditions in all cases: Homo sapiens

The subject of one assay is A549. Kind of assay: Cytotoxicity of compound against A549 cell line.
Assay [1] has as its system MCF7. Kind of assay: Cytotoxicity of compound against MCF-7/ADR cell line.
The next assay has as its system SK-OV-3. Briefly: Cytotoxicity of compound against SKOV-3 cell line.
Assay [2] relates to MCF7. Briefly: Cytotoxicity of compound against MCF-7 cell line.

Take `C=C/C=C\[C@H](C)[C@H](OC(N)=O)[C@@H](C)[C@H](O)[C@@H](C)C/C(C)=C\[C@H](C)[C@@H](O)[C@@H](C)/C=C\CCc1cccc(Cl)c1`: the IC50 (usually the concentration at which inhibition is half-maximal) in the assay on A549 was 580 nM; in the assay on MCF7 [1], 650 nM; in the assay with SK-OV-3, 380 nM; in the assay with MCF7 [2], 400 nM.

Consider `C=C/C=C\[C@H](C)[C@H](OC(N)=O)[C@@H](C)[C@H](O)[C@@H](C)C/C(C)=C\[C@H](C)[C@@H](O)[C@@H](C)/C=C\CCc1cccc(O)c1`, for which the IC50 worked out at 190 nM in the assay with A549, 390 nM in the assay with MCF7 [1], 40 nM with SK-OV-3 and 130 nM in the assay on MCF7 [2].

Turning to `C=C/C=C\[C@H](C)[C@H](OC(N)=O)[C@@H](C)[C@H](O)[C@@H](C)C/C(C)=C\[C@H](C)[C@@H](O)[C@@H](C)/C=C\CCc1ccc(C)c(O)c1`, the half-inhibitory concentration (IC50) in the assay on A549 turned out to be 4000 nM; in the assay with MCF7 [1] it was 4000 nM; in the assay with SK-OV-3 it was 410 nM; in the assay with MCF7 [2] it was 770 nM.

For the compound `C=C/C=C\[C@H](C)[C@H](OC(N)=O)[C@@H](C)[C@H](O)[C@@H](C)C/C(C)=C\[C@H](C)[C@@H](O)[C@@H](C)/C=C\CCc1sccc1C`, the IC50 with A549 turned out to be 790 nM; in the assay on MCF7 [1], 620 nM; with SK-OV-3 it was 370 nM; with MCF7 [2], 370 nM.

In the case of `C=C/C=C\[C@H](C)[C@H](OC(N)=O)[C@@H](C)[C@H](O)[C@@H](C)C/C(C)=C\[C@H](C)[C@@H](O)[C@@H](C)/C=C\CCc1cccc(F)c1`, the IC50 came to 650 nM with A549, 500 nM in the assay on MCF7 [1], 400 nM with SK-OV-3 and 370 nM with MCF7 [2].

`C=C/C=C\[C@H](C)[C@H](OC(N)=O)[C@@H](C)[C@H](O)[C@@H](C)C/C(C)=C\[C@H](C)[C@@H](O)[C@@H](C)/C=C\CCc1ccc(C)c(F)c1`: the IC50 with A549 was 4000 nM; with MCF7 [1], 4000 nM; with SK-OV-3 it was 1000 nM; in the assay with MCF7 [2] it was 1000 nM.

Regarding `C=C/C=C\[C@H](C)[C@H](OC(N)=O)[C@@H](C)[C@H](O)[C@@H](C)C/C(C)=C\[C@H](C)[C@@H](O)[C@@H](C)/C=C\CCc1ccsc1`, the IC50 came out at 4000 nM with A549, 4000 nM with MCF7 [1], 440 nM in the assay with SK-OV-3 and 850 nM in the assay with MCF7 [2].

Consider `C=C/C=C\[C@H](C)[C@H](OC(N)=O)[C@@H](C)[C@H](O)[C@@H](C)C/C(C)=C\[C@H](C)[C@@H](O)[C@@H](C)/C=C\CCc1ccc(Oc2ccccc2)cc1`, for which the IC50 in the assay on A549 was determined as 10000 nM; in the assay with MCF7 [1] it was 10000 nM; with SK-OV-3 it was 10000 nM; with MCF7 [2] it was 4000 nM.

Turning to `C=C/C=C\[C@H](C)[C@H](OC(N)=O)[C@@H](C)[C@H](O)[C@@H](C)C/C(C)=C\[C@H](C)[C@@H](O)[C@@H](C)/C=C\CCc1cc(O)cc(O)c1`, the half-inhibitory concentration (IC50) was 310 nM in the assay on A549, above 1000 nM in the assay on MCF7 [1], 40 nM with SK-OV-3 and 160 nM with MCF7 [2].

For the compound `C=C/C=C\[C@H](C)[C@H](OC(N)=O)[C@@H](C)[C@H](O)[C@@H](C)C/C(C)=C\[C@H](C)[C@@H](O)[C@@H](C)/C=C\CCc1cccc(OC)c1`, the IC50 in the assay with A549 was 600 nM; in the assay on MCF7 [1], 500 nM; with SK-OV-3 it was 370 nM; in the assay with MCF7 [2], 330 nM.

For `C=C/C=C\[C@H](C)[C@H](OC(N)=O)[C@@H](C)[C@H](O)[C@@H](C)C/C(C)=C\[C@H](C)[C@@H](O)[C@@H](C)/C=C\CCc1cccc(O)c1C`, the IC50 with A549 was 910 nM; in the assay on MCF7 [1] it was 1000 nM; in the assay with SK-OV-3 it was 270 nM; in the assay on MCF7 [2], 490 nM.

On to `C=C/C=C\[C@H](C)[C@H](OC(N)=O)[C@@H](C)[C@H](O)[C@@H](C)C/C(C)=C\[C@H](C)[C@@H](O)[C@@H](C)/C=C\CCc1ccccc1`, for which the IC50 worked out at 510 nM in the assay on A549, 560 nM with MCF7 [1], 350 nM with SK-OV-3 and 480 nM in the assay on MCF7 [2].

With `C=C/C=C\[C@H](C)[C@H](OC(N)=O)[C@@H](C)[C@H](O)[C@@H](C)C/C(C)=C\[C@H](C)[C@@H](O)[C@@H](C)/C=C\CCc1cc(F)cc(F)c1`, the IC50 with A549 worked out at 1000 nM; in the assay with MCF7 [1], 2000 nM; with SK-OV-3, 360 nM; in the assay with MCF7 [2], 600 nM.
